Laboratory results reported in the supplement of paper PMC7287046.

Legend:
Settings in all cases: exposure time: 72 h
[1] = test system: AM-38; assay: HSA synergy score (Combenefit); higher = more synergy
Procedure: (§1)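 The same 6x6 dose matrices of drug pairs on glioma cell lines (72 h, CellTiter-Glo viability normalised to DMSO, triplicate) were scored with Combenefit. The Loewe, Bliss and HSA synergy scores are given; paper thresholds are Loewe 7.8 and Bliss 2.5.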

[2] = test system: KNS-42; assay: as above
Procedure: as §1

[3] = test system: SF268; assay: as above
Procedure: as §1

[4] = test system: SF539; assay: as above
Procedure: as §1

[5] = test system: SNB75; assay: as above
Procedure: as §1

[6] = test system: T98G; assay: as above
Procedure: as §1

[7] = test system: U118; assay: as above
Procedure: as §1

[8] = test system: U251; assay: as above
Procedure: as §1

[9] = test system: U87; assay: as above
Procedure: as §1

[10] = test system: AM38; assay: Chou-Talalay combination index (dimensionless); higher = less synergy (more antagonism)
Procedure: (§2)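 Glioma cell lines were treated for 72 h with a 6x6 matrix of two drugs, each in twofold dilutions with the top dose at the single-drug IC50. Viability was read by CellTiter-Glo and normalised to DMSO controls, in triplicate. The Chou-Talalay combination index was computed by the median effect principle; CI < 0.8 means synergy.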

[11] = test system: KNS42; assay: as above
Procedure: as §2

[12] = test system: SF268; assay: as above
Procedure: as §2

[13] = test system: SF539; assay: as above
Procedure: as §2

[14] = test system: SNB75; assay: as above
Procedure: as §2

[15] = test system: T98; assay: as above
Procedure: as §2

[16] = test system: U118; assay: as above
Procedure: as §2

[17] = test system: U251; assay: as above
Procedure: as §2

[18] = test system: U87; assay: as above
Procedure: as §2

[19] = test system: AM-38; assay: Bliss synergy score (Combenefit); higher = more synergy; extreme values may be limits of the assay
Procedure: as §1

[20] = test system: KNS-42; assay: as above
Procedure: as §1

[21] = test system: SF268; assay: as above
Procedure: as §1

[22] = test system: SF539; assay: as above
Procedure: as §1

[23] = test system: SNB75; assay: as above
Procedure: as §1

[24] = test system: T98G; assay: as above
Procedure: as §1

[25] = test system: U118; assay: as above
Procedure: as §1

[26] = test system: U251; assay: as above
Procedure: as §1

[27] = test system: U87; assay: as above
Procedure: as §1

[28] = test system: AM-38; assay: Loewe synergy score (Combenefit); higher = more synergy; extreme values may be limits of the assay
Procedure: as §1

[29] = test system: KNS-42; assay: as above
Procedure: as §1

[30] = test system: SF268; assay: as above
Procedure: as §1

[31] = test system: SF539; assay: as above
Procedure: as §1

[32] = test system: SNB75; assay: as above
Procedure: as §1

[33] = test system: T98G; assay: as above
Procedure: as §1

[34] = test system: U118; assay: as above
Procedure: as §1

[35] = test system: U251; assay: as above
Procedure: as §1

[36] = test system: U87; assay: as above
Procedure: as §1

Structure (SMILES)	HSA synergy score [1]	HSA synergy score [2]	HSA synergy score [3]	HSA synergy score [4]	HSA synergy score [5]	HSA synergy score [6]	HSA synergy score [7]	HSA synergy score [8]	HSA synergy score [9]	Chou-Talalay combination index [10]	Chou-Talalay combination index [11]	Chou-Talalay combination index [12]	Chou-Talalay combination index [13]	Chou-Talalay combination index [14]	Chou-Talalay combination index [15]	Chou-Talalay combination index [16]	Chou-Talalay combination index [17]	Chou-Talalay combination index [18]	Bliss synergy score [19]	Bliss synergy score [20]	Bliss synergy score [21]	Bliss synergy score [22]	Bliss synergy score [23]	Bliss synergy score [24]	Bliss synergy score [25]	Bliss synergy score [26]	Bliss synergy score [27]	Loewe synergy score [28]	Loewe synergy score [29]	Loewe synergy score [30]	Loewe synergy score [31]	Loewe synergy score [32]	Loewe synergy score [33]	Loewe synergy score [34]	Loewe synergy score [35]	Loewe synergy score [36]
CC(=O)O[C@@]12CO[C@@H]1C[C@H](O)[C@@]1(C)C(=O)[C@H](O)C3=C(C)[C@@H](OC(=O)[C@H](O)[C@@H](NC(=O)OC(C)(C)C)c4ccccc4)C[C@@](O)([C@@H](OC(=O)c4ccccc4)[C@H]21)C3(C)C [Docetaxel] + CCC(=O)N1CCN(c2ccc(-n3c(=O)ccc4cnc5ccc(-c6cnc7ccccc7c6)cc5c43)cc2C(F)(F)F)CC1 [Torin1]	9.71	14.4	12.8	2.76	3.38	9.53	4.14	6.14	28.7	0.895	0.95	0.8	0.976	0.749	0.53	0.949	0.732	0.448	0	0.0301	2.06	0	0.14	0.32	0.102	0.704	14	3.28	10.2	6.57	2.76	1.3	8.3	1.75	5.9	20.6
O=c1[nH]c2ccccc2n1C1CCN(Cc2ccc(-c3[nH]c4cc5ncnc5cc4nc3-c3ccccc3)cc2)CC1 [Akt inhibitor VIII] + N#CC(c1ccnc(NCCc2cccnc2)n1)c1nc2ccccc2s1 [AS601245]	14	3.65	8.59	0.651	5.96	17.9	12.4	3.96	12.3	0.584	0.979	0.805	0.966	0.89	0.031	0.264	0.641	0.0154	8.16	0.964	1.39	0.0617	1.31	9.74	5.46	3.96	10.4	11.2	1.66	0.94	0.638	0.62	9.66	7.71	3.96	6.85
CCCCCCCCCCCC1=C(O)C(=O)C=C(O)C1=O [Embelin] + O=c1[nH]c2ccccc2n1C1CCN(Cc2ccc(-c3[nH]c4cc5ncnc5cc4nc3-c3ccccc3)cc2)CC1 [Akt inhibitor VIII]	2.45	21.8	6.9	2.02	5.56	5.06	2.72	0.813	3.6	0.773	0.589	0.946	1.03	0.773	0.226	0.946	0.839	0.641	1.12	10.1	2.64	0.0542	1.95	1.2	1.02	0.813	3.16	0.351	21.4	1.14	0.853	1.11	3.51	1.18	0.813	1.72
C#Cc1cccc(Nc2ncnc3cc(OCCOC)c(OCCOC)cc23)c1 [Erlotinib] + CCCCCCCCCCCC1=C(O)C(=O)C=C(O)C1=O [Embelin]	0	10.4	4.82	8.08	6.85	1.02	2.42	14.6	0	1.08	0.797	0.795	0.728	0.836	0.961	0.853	0.632	1.14	0	5.81	0.32	2.46	0.771	0	0.526	10.1	0	0	5.93	1.59	1.08	1.7	0.68	2.33	10.4	0
